Patent US20250255978A1, “DRUG-DELIVERY NANOPARTICLES AND TREATMENTS FOR DRUG-RESISTANT CANCER” (Cedars-Sinai Medical Center, priority 2016, published 2025)

Legend:
Assay in all cases: Cell viability assay (MTS), relative cell survival
Settings in all cases: dose range, 4 h + 44 h incubation
[1] = tested on: SKBR3-TR (trastuzumab resistant breast cancer) cells; type: cell-based, human
Procedure: (§1) The cells per well were plated in black-walled, clear-bottom, 96-well plates. […] Plates were rocked for 4 hours at 37° C. and 5% CO2 and then 60 μL of complete media was added to each well to bring the total volume to 100 μL and the incubation was continued, without rocking, for 44 hours at 37° C. and 5% CO2. At the conclusion of the incubation, relative cell viability was determined via MTS assay (Promega) according to manufacturer's instructions. Specifically, the media was removed from the wells and 100 μL of fresh complete media was added to each well. 20 μl of the prepared MTS reagent was added to each well. The plate was then incubated with rocking at 37° C. and 5% CO2 and readings were taken of the plate at 1, 2, and 3 hours at 490 nm using a spectrophotometer.
(§2) To verify the contribution of HER3 targeted toxicity of the Eos-001 nanoparticles, a HER3 peptide was used as a competitive inhibitor. The HER3 peptide was pre-incubated with the Eos-001 particles, which bound the heregulin targeting domain. […]
(§3) The cells per well were plated in black-walled, clear-bottom, 96-well plates. […] At the conclusion of the incubation, relative cell viability was determined via MTS assay (Promega) according to manufacturer's instructions. […]

[2] = tested on: SKBR3 (human breast cancer) cells; type: cell-based
Procedure: as §1, §2, §3

[3] = tested on: BT474 (human breast cancer) cells; type: cell-based
Procedure: Plates were rocked for 4 hours at 37° C. and 5% CO2 and then 60 μL of complete media was added to each well to bring the total volume to 100 μL and the incubation was continued, without rocking, for 44 hours at 37° C. and 5% CO2. At the conclusion of the incubation, relative cell viability was determined via MTS assay (Promega) according to manufacturer's instructions. Specifically, the media was removed from the wells and 100 μL of fresh complete media was added to each well. 20 μl of the prepared MTS reagent was added to each well. The plate was then incubated with rocking at 37° C. and 5% CO2 and readings were taken of the plate at 1, 2, and 3 hours at 490 nm using a spectrophotometer.
(§4) The cells per well were plated in black-walled, clear-bottom, 96-well plates. […] At the conclusion of the incubation, relative cell viability was determined via MTS assay (Promega) according to manufacturer's instructions. […] The plate was then incubated with rocking at 37° C. and 5% CO2 and readings were taken of the plate at 1, 2, and 3 hours at 490 nm using a spectrophotometer. […]
as §3

[4] = tested on: JIMT1 (human breast cancer cells from a patient naturally resistant to trastuzumab); type: cell-based
Procedure: as §1, with “Relative cell survival after exposure to the described compositions was measured using a cell viability assay. 15,000, 10,000, or 8,000 cells” for “The cells”, “spectrophotometer. […]” for “spectrophotometer.”
as §4, with “concentration of Eos-001 is reported” for “cells per well were plated”, “μM doxorubicin, and the concentration of lapatinib is reported in μM lapatinib.” for “black-walled, clear-bottom, 96-well plates.”, “on” for “using a”

[5] = tested on: BT474-TR (trastuzumab-resistant human breast cancer) cells; type: cell-based
Procedure: as §1, §3, §3

CS(=O)(=O)CCNCc1ccc(-c2ccc3ncnc(Nc4ccc(OCc5cccc(F)c5)c(Cl)c4)c3c2)o1 [lapatinib]
killing of SKBR3-TR cells [1]: slightly effective
killing of SKBR3 cells [2]: similarly effective
effect on survival / killing of BT474 cells [3]: similarly effective
effect on survival / killing of JIMT1 cells [4]: unable to kill
killing of BT474-TR cells [5]: slightly effective
